# Experimental data from ChEMBL document CHEMBL4765478, “Lithocholic Acid Derivatives as Potent Vitamin D Receptor Agonists” (J Med Chem, 2021).
# Activity calls are given as the source filed them. The calls are words filed in the database; no cut-off is given here.
# How the values were obtained:
# [1] = biological target: T1, Vitamin D3 receptor (Homo sapiens) (UniProt P11473); assay: Agonist activity at VDR in human HL-60 cells assessed as induction of cell differentiation of promyelocytes to monocytes at 0.1 nM after 4 days by NBT reduction assay; assay type: cell-based; conditions: filed as agonist, time 4.0 day
# T1 sequence (whole entry): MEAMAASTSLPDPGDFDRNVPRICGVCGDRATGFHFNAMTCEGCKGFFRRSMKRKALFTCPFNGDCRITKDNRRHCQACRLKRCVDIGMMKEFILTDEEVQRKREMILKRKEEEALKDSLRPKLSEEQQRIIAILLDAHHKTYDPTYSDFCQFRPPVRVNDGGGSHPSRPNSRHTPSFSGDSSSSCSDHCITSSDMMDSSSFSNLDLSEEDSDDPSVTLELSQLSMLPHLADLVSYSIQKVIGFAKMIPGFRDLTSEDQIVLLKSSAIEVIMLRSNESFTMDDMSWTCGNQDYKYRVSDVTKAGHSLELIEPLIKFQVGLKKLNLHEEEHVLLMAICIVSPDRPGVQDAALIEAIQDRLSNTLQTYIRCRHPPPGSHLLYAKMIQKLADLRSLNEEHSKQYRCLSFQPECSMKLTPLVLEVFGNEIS
# [2] = biological target: T2, Vitamin D3 receptor (Bos taurus) (UniProt Q28037); assay: (§1) Displacement of [3H]-1-alpha,25-(OH)2D3 from bovine thymus VDR incubated for 18 hrs by competitive binding assay; conditions: filed as agonist
# T2 sequence (whole entry): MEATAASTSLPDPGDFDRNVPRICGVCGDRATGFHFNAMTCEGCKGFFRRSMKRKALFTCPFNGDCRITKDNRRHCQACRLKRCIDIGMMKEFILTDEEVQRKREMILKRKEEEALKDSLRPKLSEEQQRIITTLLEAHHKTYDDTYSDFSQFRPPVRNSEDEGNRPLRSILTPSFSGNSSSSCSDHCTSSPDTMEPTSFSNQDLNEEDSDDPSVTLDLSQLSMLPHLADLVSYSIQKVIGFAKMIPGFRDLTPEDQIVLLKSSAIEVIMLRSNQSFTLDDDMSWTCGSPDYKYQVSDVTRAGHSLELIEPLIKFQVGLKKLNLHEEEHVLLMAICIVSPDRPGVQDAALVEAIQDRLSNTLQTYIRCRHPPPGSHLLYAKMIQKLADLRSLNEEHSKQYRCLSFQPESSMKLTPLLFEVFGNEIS
# Vitamin D3 receptor [3] = biological target: T3, Vitamin D3 receptor (Bos taurus, UniProt Q28037); assay: as §1
# T3 sequence (Q28037 whole entry): T2 sequence (whole entry)
# Vitamin D3 receptor [4] = biological target: T4, Vitamin D3 receptor (Homo sapiens, UniProt P11473); assay: Agonist activity at human VDR expressed in HEK293 cells expressing mouse osteopontin VDRE assessed as induction of receptor transactivation incubated for 16 hrs by luciferase reporter gene assay; assay type: cell-based
# T4 sequence (P11473 whole entry): T1 sequence (whole entry)
# Vitamin D3 receptor [5] = biological target: T4, Vitamin D3 receptor; assay: Agonist activity at human VDR expressed in African green monkey COS7 cells expressing mouse osteopontin VDRE assessed as induction of receptor transactivation incubated for 16 hrs by luciferase reporter gene assay; assay type: cell-based
# [6] = biological target: T1, Vitamin D3 receptor (Homo sapiens); assay: Potency index, ratio of EC50 for lithocholic acid to EC50 for test compound for agonist activity at VDR in human HL60 cells assessed as induction of cell differentiation of promyelocytes to monocytes after 4 days by NBT reduction assay; assay type: cell-based; conditions: HL-60, time 4.0 day
# [7] = biological target: T1, Vitamin D3 receptor (Homo sapiens); assay: Potency index, ratio of EC50 for 1-alpha,25-(OH)2D3 to EC50 for test compound for agonist activity at VDR in human HL60 cells assessed as induction of cell differentiation of promyelocytes to monocytes after 4 days by NBT reduction assay; assay type: cell-based; conditions: HL-60, time 4.0 day
# [8] = biological target: T1, Vitamin D3 receptor (Homo sapiens); assay: Agonist activity at VDR in human HL-60 cells assessed as induction of cell differentiation of promyelocytes to monocytes at 1 uM after 4 days by NBT reduction assay; assay type: cell-based; conditions: filed as agonist, time 4.0 day
Structure (SMILES),Activity [1],Activity [2],IC50 (Vitamin D3 receptor [3]),EC50 (Vitamin D3 receptor [4]),EC50 (Vitamin D3 receptor [5]),Ratio EC50 [6],Ratio EC50 [7],Activity [8]
C[C@H](CCC(=O)O)[C@H]1CC[C@H]2[C@@H]3CC[C@@H]4C[C@H](CC(C)(C)O)CC[C@]4(C)[C@H]3CC[C@]12C,Active,Dose-dependent effect,2.09 nM,0.15 nM,1 nM,< 10000,3,–
CC(=O)O[C@@H]1CC[C@@]2(C)[C@H](CC[C@@H]3[C@@H]2CC[C@]2(C)[C@@H]([C@H](C)CCC(=O)O)CC[C@@H]32)C1,–,–,–,–,–,–,–,Active
C[C@H](CCC(=O)O)[C@H]1CC[C@H]2[C@@H]3CC[C@@H]4C[C@H](OS(C)(=O)=O)CC[C@]4(C)[C@H]3CC[C@]12C,–,–,–,–,–,–,–,Active
C[C@H](CCC(=O)O)[C@H]1CC[C@H]2[C@@H]3CC[C@@H]4C[C@H](C(C)(C)O)CC[C@]4(C)[C@H]3CC[C@]12C,–,–,–,–,–,–,–,Active
C[C@H](CCC(=O)O)[C@H]1CC[C@H]2[C@@H]3CC[C@@H]4C[C@@H](CC(C)(C)O)CC[C@]4(C)[C@H]3CC[C@]12C,–,Dose-dependent effect,67.3 nM,0.014 nM,0.24 nM,–,–,–
